# Experimental data as given in ChEMBL document CHEMBL3244129, “Quinolone antimicrobial agents. 1. Versatile new synthesis of 1-alkyl-1,4-dihydro-4-oxo-3-quinolinecarboxylic acids” (1978).
# Tests used:
# [1] = system: Escherichia coli; assay: Antimicrobial activity against Escherichia coli 9637 assessed as growth inhibition by agar dilution-streak method; assay type: functional
# [2] = system: Salmonella gallinarum; assay: Antimicrobial activity against Salmonella gallinarum 9184 assessed as growth inhibition by agar dilution-streak method
# [3] = system: Staphylococcus aureus; assay: Antimicrobial activity against Staphylococcus aureus ATCC […] assessed as growth inhibition by agar dilution-streak method; assay type: functional
# [4] = system: Mycolicibacterium smegmatis; assay: Antimicrobial activity against Mycobacterium smegmatis 607 assessed as growth inhibition by agar dilution-streak method; assay type: functional
# [5] = system: Klebsiella pneumoniae; assay: Antimicrobial activity against Klebsiella pneumoniae 10031 assessed as growth inhibition by agar dilution-streak method; assay type: functional
# [6] = system: Candida albicans; assay: Antimicrobial activity against Candida albicans 10231 assessed as growth inhibition by agar dilution-streak method; assay type: functional
SMILES,MIC [1],MIC [2],MIC [3],MIC [4],MIC [5],MIC [6]
CCn1cc(C(=O)O)c(=O)c2ccc(C)cc21,2.5 µg/mL,1.25 µg/mL,40 µg/mL,> 100 µg/mL,10 µg/mL,> 100 µg/mL
CCn1cc(C(=O)O)c(=O)c2cc(C)ccc21,20 µg/mL,20 µg/mL,40 µg/mL,> 100 µg/mL,> 100 µg/mL,> 100 µg/mL
CCn1c(O)c(C(=O)O)c(=O)c2cc3c(cc21)OCO3,> 100 µg/mL,> 100 µg/mL,> 100 µg/mL,> 100 µg/mL,> 100 µg/mL,> 100 µg/mL
CCn1cc(C(=O)O)c(=O)c2cc3c(cc21)OCO3 [OXOLINIC ACID],1.25 µg/mL,1.25 µg/mL,5 µg/mL,> 40 µg/mL,< 0.625 µg/mL,> 40 µg/mL

# Next, values leading:
MIC [1],MIC [2],MIC [3],MIC [4],MIC [5],MIC [6],SMILES
> 100 µg/mL,> 100 µg/mL,> 100 µg/mL,> 100 µg/mL,> 100 µg/mL,> 100 µg/mL,CCn1cc(C(=O)O)c(=O)c2cccc(C)c21
20 µg/mL,20 µg/mL,100 µg/mL,100 µg/mL,10 µg/mL,> 40 µg/mL,CCn1cc(C(=O)O)c(=O)c2cc(Cl)ccc21
> 100 µg/mL,> 100 µg/mL,> 100 µg/mL,> 100 µg/mL,> 100 µg/mL,> 100 µg/mL,CCn1c(C)c(C(=O)O)c(=O)c2cc3c(cc21)OCO3
